From ChEMBL document CHEMBL1132191, “Prediction of the binding free energies of new TIBO-like HIV-1 reverse transcriptase inhibitors using a combination of PROFEC, PB/SA, CMC/MD, and free energy calculations” (J Med Chem, 1999) come the findings set out here.

For the assay, the target named is Human immunodeficiency virus type 1 reverse transcriptase (Human immunodeficiency virus 1, UniProt Q72547). In words: Effective concentration against HIV-1 reverse transcriptase. In kind it is functional.
`C=CCN1Cc2c(C)ccc3[nH]c(=S)n(c23)C[C@@H]1C`: the half-maximal effective concentration (EC50) was determined as 14 nM.
`CC(C)=CCN1Cc2c(Cl)ccc3[nH]c(=S)n(c23)C[C@@H]1C` [TIVIRAPINE]: the EC50 was determined as 5.1 nM. This EC50 lies about 2.7-fold lower than the previous one.
As for `CC(C)=CCN1Cc2cc(Cl)cc3[nH]c(=S)n(c23)C[C@@H]1C`, a half-maximal effect (EC50) was put at 33 nM.
Consider `C=CCN1Cc2c(Cl)ccc3[nH]c(=S)n(c23)C[C@@H]1C`, for which the concentration for a half-maximal effect (EC50) was 4.6 nM.
As for `C=CCN1[C@H](C)c2cccc3[nH]c(=S)n(c23)C[C@@H]1C`, it took 790 nM to reach a half-maximal effect (EC50). Against the preceding molecule, the EC50 is about 170-fold higher.
Under `CC(C)=CCN1Cc2cccc3[nH]c(=S)n(c23)C[C@@H]1C` stands 44 nM; under `C=CCN1[C@@H](C)Cn2c(=S)[nH]c3cccc(c32)[C@@H]1C`, 39 nM.
The result for `C=CCN1Cc2cccc3[nH]c(=O)n(c23)C[C@@H]1C` reads 4200 nM.
